Values after ≈ are worked out from the molar mass of the structure shown. Read-outs that look alike come from different tables or passages of the source.
What was measured:
Assay in all cases: MIC determination by agar dilution (Mueller Hinton Agar)
Format in all cases: cell-based
Citrobacter freundii = details: Culture Number 3507, 35° C., 20 hours, read-out: Minimum Inhibitory Concentration
Procedure: (§1) The compounds of this invention and their respective pharmaceutically acceptable salts have antibiotic activity against a variety of gram-negative bacteria including Escherichia coli, Klebsiella pneumoniae and Pseudomonas aeruginosa. The compounds are useful for treating bacterial infections in animals, including and most preferably humans. Compounds of the invention are tested for in vitro antimicrobial activity using standard testing procedures such as the determination of minimum inhibitory concentration (MIC) by methods described in "Methods for Dilution Antimicrobial Susceptibility Tests for Bacteria That Grow Aerobically" (M7-A) Published December 1985 by the National Committee for Clinical Laboratory standards, 771 East Lancaster Avenue, Villanova, Pa., 19084. Briefly, MIC values are determined in unsupplemented Mueller Hinton Agar (MHA). The compounds tested are diluted serially into molten MHA at 47° C. The agar is poured into petri dishes and allowed to harden. The various bacteria used for testing are grown overnight on MHA at 35° C. and transferred to Tryptiease Soy Broth (TSB) until a turbidity of 0.5 McFarland standard is obtained. The bacteria are diluted one to twenty in TSB and inoculated on the plates (1 μl using a Steers replicator). […] The MIC test results of four typical compounds of this invention.

Enterobacter cloacae = details: 20 h, read-out: Minimum Inhibitory Concentration
Procedure: as §1

Escherichia coli = details: 20 h, read-out: Minimum Inhibitory Concentration
Procedure: as §1

Klebsiella oxytoca = details: 20 h, read-out: Minimum Inhibitory Concentration
Procedure: as §1

Klebsiella pneumoniae = details: Culture Number 58, 35° C., 20 hours, read-out: Minimum Inhibitory Concentration
Procedure: as §1

Proteus vulgaris = details: Culture Number 9679, 35° C., 20 hours, read-out: Minimum Inhibitory Concentration
Procedure: as §1

Pseudomonas aeruginosa = details: 20 h, read-out: Minimum Inhibitory Concentration
Procedure: as §1

Serratia marcescens = details: Culture Number 6888, 35° C., 20 hours, read-out: Minimum Inhibitory Concentration
Procedure: as §1

Staphylococcus aureus = details: 35° C., 20 hours; for MIC: Staphylococcus aureus, read-out: Minimum Inhibitory Concentration
Procedure: as §1

Staphylococcus epidermis = details: Culture Number 30031, 35° C., 20 hours, read-out: Minimum Inhibitory Concentration
Procedure: as §1

Streptococcus faecalis = details: Enterococcus faecalis, 35° C., 20 hours, read-out: Minimum Inhibitory Concentration
Procedure: as §1

Streptococcus pneumoniae = details: Culture Number 41, 35° C., 20 hours, read-out: Minimum Inhibitory Concentration
Procedure: as §1

Streptococcus pyogenes = details: Culture Number 152, 35° C., 20 hours, read-out: Minimum Inhibitory Concentration
Procedure: as §1

Acinetobacter sp. = details: Culture Number 30278, 35° C., 20 hours, read-out: Minimum Inhibitory Concentration
Procedure: as §1

[1] = system: Acinetobacter calcoaceticus; details: Culture Number 12170, 35° C., 20 hours, read-out: Minimum Inhibitory Concentration
Procedure: as §1

| SMILES | MIC (Citrobacter freundii) [µg/mL] | MIC (Enterobacter cloacae; Culture Number 9381, 35° C.) [µg/mL] | MIC (Enterobacter cloacae; Culture Number 9382, 35° C.) [µg/mL] | MIC (Escherichia coli; Culture Number 9379, 35° C.) [µg/mL] | MIC (Escherichia coli; Culture Number 9380, 35° C.) [µg/mL] | MIC (Escherichia coli; Culture Number 9451, 35° C.) [µg/mL] | MIC (Klebsiella oxytoca; Culture Number 9383, 35° C.) [µg/mL] | MIC (Klebsiella oxytoca; Culture Number 9384, 35° C.) [µg/mL] | MIC (Klebsiella pneumoniae) [µg/mL] | MIC (Proteus vulgaris) [µg/mL] | MIC (Pseudomonas aeruginosa; Culture Number 231, 35° C.) [µg/mL] | MIC (Pseudomonas aeruginosa; Culture Number 9191, 35° C.) [µg/mL] | MIC (Serratia marcescens) [µg/mL] | Minimum Inhibitory Concentration (Staphylococcus aureus; Culture Number 6685) [µg/mL] | Minimum Inhibitory Concentration (Staphylococcus aureus; Culture Number 9213) [µg/mL] | MIC (Staphylococcus aureus; Culture Number 9218) [µg/mL] | MIC (Streptococcus pneumoniae) [µg/mL] | MIC (Streptococcus pyogenes) [µg/mL] | MIC (Pseudomonas aeruginosa; Culture Number 6676, 35° C.) [µg/mL] | MIC [1] [µg/mL] | other results |
| --- | --- | --- | --- | --- | --- | --- | --- | --- | --- | --- | --- | --- | --- | --- | --- | --- | --- | --- | --- | --- | --- |
| CC(C)(O/N=C(\C(=O)N[C@H]1CN(C(=O)NS(=O)(=O)N[C@H]2CN(C(=O)c3cc(=O)c(O)c[nH]3)NC2=O)C1=O)c1csc(N)n1)C(=O)O [60(b), 3(S)-3-[2-(2-Amino-4-thiazoyl)-Z-(2)-(carboxyisopropyloxyimino)acetamido]-1-[(3-hydroxy-4-pyridon-6-yl)-1-carbonyl-pyrazolidinone-4-(S)-amino]-sulfonyl-amino-carbonyl-2-azetidinone] | 0.03 (≈ 0.0438 µM) | 8 (≈ 11.7 µM) | 1 (≈ 1.46 µM) | < 0.008 | < 0.008 | < 0.008 | 0.125 (≈ 0.183 µM) | 0.06 (≈ 0.0876 µM) | 0.5 (≈ 0.73 µM) | 0.06 (≈ 0.0876 µM) | 0.25 (≈ 0.365 µM) | 0.25 (≈ 0.365 µM) | 0.03 (≈ 0.0438 µM) | > 64 | > 64 | > 64 | > 64 | 64 (≈ 93.5 µM) |  |  | Minimum Inhibitory Concentration (Staphylococcus aureus; Culture Number 3665): > 64 µg/mL; MIC (Staphylococcus epidermis): > 64 µg/mL; MIC (Streptococcus faecalis; Culture Number 694): > 64 µg/mL |
| CC(C)(O/N=C(\C(=O)N[C@H]1CN(C(=O)NS(=O)(=O)N[C@@H]2CN(C(=O)c3cc(=O)c(O)c[nH]3)NC2=O)C1=O)c1csc(N)n1)C(=O)O [60(d), 3(S)-3-[2-(2-Amino-4-thiazolyl)-Z-(2)(carboxyisopropyloxyimino)-acetamido]-1-[(3-hydroxy-4-pyridon-6-yl)-1-carbonyl-pyrazolidinone-4(R)-amino]-sulfonyl-aminocarbonyl-2-azetidinone] | 0.06 (≈ 0.0876 µM) | 4 (≈ 5.84 µM) | 1 (≈ 1.46 µM) | 0.015 (≈ 0.0219 µM) | < 0.008 | 0.015 (≈ 0.0219 µM) | 0.125 (≈ 0.183 µM) | 0.125 (≈ 0.183 µM) | 0.5 (≈ 0.73 µM) | 0.06 (≈ 0.0876 µM) | 0.25 (≈ 0.365 µM) | 0.125 (≈ 0.183 µM) | 0.03 (≈ 0.0438 µM) |  |  | 64 (≈ 93.5 µM) | > 64 | > 64 | 2 (≈ 2.92 µM) |  | MIC (Acinetobacter sp.): 1 µg/mL (≈ 1.46 µM) |
| C[C@H]1[C@H](NS(=O)(=O)NC(=O)N2C[C@H](NC(=O)/C(=N\OC(C)(C)C(=O)O)c3csc(N)n3)C2=O)C(=O)NN1C(=O)c1cc(=O)c(O)c[nH]1 [60(m), 3(S)-3-[2 (2-amino-4-thiazoyl)-Z-(2)(carboxyisopropyloxyimino)-acetamido]-1-[(3-hydroxy-4-pyridon-6-yl) 1-carbonyl-5(S)-methyl-pyrazolidinone-4(S)-amino]-sulfonylaminocarbonyl-2-azetidinone] | 0.03 (≈ 0.0429 µM) | 8 (≈ 11.5 µM) | 2 (≈ 2.86 µM) | 0.03 (≈ 0.0429 µM) | < 0.008 | < 0.008 | 0.25 (≈ 0.358 µM) | 0.06 (≈ 0.0859 µM) | 0.5 (≈ 0.716 µM) | 0.06 (≈ 0.0859 µM) | 0.125 (≈ 0.179 µM) | 0.125 (≈ 0.179 µM) | 0.06 (≈ 0.0859 µM) | > 64 | > 64 |  | > 64 | > 64 | 0.5 (≈ 0.716 µM) | 2 (≈ 2.86 µM) | MIC (Escherichia coli; Culture Number 9952, 35° C.): 0.015 µg/mL (≈ 0.0215 µM); Minimum Inhibitory Concentration (Staphylococcus aureus; Culture Number 9218): > 64 µg/mL; MIC (Staphylococcus aureus; Culture Number 3665): > 64 µg/mL; MIC (Streptococcus faecalis; Culture Number 9217): > 64 µg/mL |
| C[C@H]1[C@@H](NS(=O)(=O)NC(=O)N2C[C@H](NC(=O)/C(=N\OC(C)(C)C(=O)O)c3csc(N)n3)C2=O)C(=O)NN1C(=O)c1cc(=O)c(O)c[nH]1 [60(p), 3(S)-3-[2-(2-amino-4-thiazoyl)-Z-(2)-(carboxyisopropyloxyimino)-acetamido]-1-[(3-hydroxy-4-pyridon-6-yl)-1-carbonyl-5(S)-methyl-pyrazolidinone-4(R)-amino]-sulfonylaminocarbonyl-2-azetidinone] | 0.06 (≈ 0.0859 µM) | 8 (≈ 11.5 µM) | 2 (≈ 2.86 µM) | 0.03 (≈ 0.0429 µM) | 0.015 (≈ 0.0215 µM) | 0.015 (≈ 0.0215 µM) | 0.125 (≈ 0.179 µM) | 0.06 (≈ 0.0859 µM) | 0.5 (≈ 0.716 µM) | 0.06 (≈ 0.0859 µM) | 0.125 (≈ 0.179 µM) | 0.06 (≈ 0.0859 µM) | 0.06 (≈ 0.0859 µM) | > 64 | > 64 |  | > 64 | > 64 | 0.25 (≈ 0.358 µM) | 1 (≈ 1.43 µM) | MIC (Escherichia coli; Culture Number 9952, 35° C.): 0.015 µg/mL (≈ 0.0215 µM); Minimum Inhibitory Concentration (Staphylococcus aureus; Culture Number 9218): > 64 µg/mL; MIC (Staphylococcus aureus; Culture Number 3665): > 64 µg/mL; MIC (Streptococcus faecalis; Culture Number 9217): > 64 µg/mL |

Reference: patent US5015737A, “Therapeutically useful beta-lactams” (The Upjohn Company, priority 1990, dated 1991)
